pKi: −log10 of the molar value.

In this assay the target is Human immunodeficiency virus type 1 protease (Human immunodeficiency virus 1, UniProt Q72874, Q7K). Briefly: Inhibition of HIV1 protease Q7K mutant by FRET method. Particulars: for pKi: read-out: Ki; for Ki: read-out: pKi (converted).

Broadly, the pKi is the Ki on a negative log10 scale, so that one unit is a factor of ten. On to `CCC(=O)CCC(=O)N[C@@H](Cc1ccccc1)[C@H](O)CN(C[C@H](C)CC)S(=O)(=O)c1ccc2ncsc2c1`, for which the pKi was 10.20 and the Ki is 0.0631 nM.
For `COc1ccc(S(=O)(=O)N(CC(C)C)C[C@@H](O)[C@H](Cc2ccccc2)NC(=O)[C@H](C)NC(C)=O)cc1` the same measures were 9.93 and 0.117 nM.
For `COc1ccc(S(=O)(=O)N(CC(C)C)C[C@@H](O)[C@H](Cc2ccccc2)NC(=O)[C@@H](NC(C)=O)C(C)C)cc1` the same measures were 10.08 and 0.0832 nM.
For `COc1ccc(S(=O)(=O)N(CC(C)C)C[C@@H](O)[C@H](Cc2ccccc2)NC(=O)c2cccc(O)c2)cc1` the same measures were 9.85 and 0.141 nM.
Take `CC[C@@H](C)CN(C[C@@H](O)[C@H](Cc1ccccc1)NC(=O)c1cccc(O)c1)S(=O)(=O)c1ccc(OC)cc1`: the pKi is 9.93 and the Ki was 0.117 nM.
Take `CCC(=O)CCC(=O)N[C@@H](Cc1ccccc1)[C@H](O)CN(CC(C)C)S(=O)(=O)c1ccc2ncsc2c1`: the pKi is 9.92 and the Ki was 0.12 nM.
For `CC(=O)N[C@H](C(=O)N[C@@H](Cc1ccccc1)[C@H](O)CN(CC(C)C)S(=O)(=O)c1ccc2ncsc2c1)C(C)C` the same measures were 10.00 and 0.1 nM.
Taken in the same sequence, the figures for `CCCCCN(C[C@@H](O)[C@H](Cc1ccccc1)NC(=O)[C@@H](NC(C)=O)C(C)C)S(=O)(=O)c1ccc(OC)cc1` were 10.42 and 0.038 nM.
With `CC[C@@H](C)CN(C[C@@H](O)[C@H](Cc1ccccc1)NC(=O)[C@@H](NC(C)=O)C(C)C)S(=O)(=O)c1ccc2ncsc2c1`, the pKi was 10.24 and the Ki was 0.0575 nM.
For the compound `COc1ccc(S(=O)(=O)N(CC(C)C)C[C@@H](O)[C@H](Cc2ccccc2)NC(=O)/C=C/C(C)=O)cc1`, the pKi was 9.77 and the Ki is 0.17 nM.
As to `CC[C@H](O)CC(=O)N[C@@H](Cc1ccccc1)[C@H](O)CN(CC(C)C)S(=O)(=O)c1ccc2ncsc2c1`, the pKi was 9.87 and the Ki was 0.135 nM.
For `COc1ccc(S(=O)(=O)N(CC(C)C)C[C@@H](O)[C@H](Cc2ccccc2)NC(=O)C2(C(N)=O)CC2)cc1` the same measures were 9.76 and 0.174 nM.
For `COc1ccc(S(=O)(=O)N(CC(C)C)C[C@@H](O)[C@H](Cc2ccccc2)Nc2cccc(F)c2C)cc1` the same measures were 10.03 and 0.0933 nM.
With `CC[C@@H](C)CN(C[C@@H](O)[C@H](Cc1ccccc1)NC(=O)C[C@@H](O)CC)S(=O)(=O)c1ccc2ncsc2c1`, the pKi was 10.17 and the Ki is 0.0676 nM.
Taken in the same sequence, the figures for `CCCCCN(C[C@@H](O)[C@H](Cc1ccccc1)NC(=O)C1(C(N)=O)CC1)S(=O)(=O)c1ccc2ncsc2c1` were 9.68 and 0.209 nM.
As for `CC[C@H](C)CN(C[C@@H](O)[C@H](Cc1ccccc1)NC(=O)[C@@H]1CN(c2cccc(C(C)=O)c2)C(=O)O1)S(=O)(=O)c1ccc2ncsc2c1`, the pKi is 10.72 and the Ki is 0.0191 nM.
Taken in the same sequence, the figures for `CC[C@@H](C)CN(C[C@@H](O)[C@H](Cc1ccccc1)NC(=O)[C@@H](NC(C)=O)C(C)C)S(=O)(=O)c1ccc(OC)cc1` were 10.48 and 0.0331 nM.
For `CC[C@H](C)CN(C[C@@H](O)[C@H](Cc1ccccc1)NC(=O)c1cccc(F)c1C)S(=O)(=O)c1ccc2ncsc2c1` the same measures were 10.48 and 0.0331 nM.
`CC[C@H](C)CN(C[C@@H](O)[C@H](Cc1ccccc1)NC(=O)[C@H](C)NC(C)=O)S(=O)(=O)c1ccc(OC)cc1`: the negative logarithm of the Ki (pKi) was 10.34 and the Ki is 0.0457 nM.
Taken in the same sequence, the figures for `CC(C)CN(C[C@@H](O)[C@H](Cc1ccccc1)NC(=O)C1(C(N)=O)CC1)S(=O)(=O)c1ccc2ncsc2c1` were 9.94 and 0.115 nM.
`CC[C@@H](C)CN(C[C@@H](O)[C@H](Cc1ccccc1)NC(=O)C1(C(N)=O)CC1)S(=O)(=O)c1ccc2ncsc2c1`: the pKi was 9.88 and the Ki was 0.132 nM.

For the origin of these results see ChEMBL document CHEMBL1143396, “Additivity in the analysis and design of HIV protease inhibitors” (J Med Chem, 2009).
